# Assay results published in US20260285850A1, “SUBSTITUTED OXAZOLIDINONES AND IMIDAZOLINONES AS HERBICIDES” (FMC CORPORATION, priority 2023, published 2026).
# Experiments:
# Assay type in all cases: in vivo
# soybean (Glycine max) [1] = assay: Test A preemergence soil spray, visual injury rating 0-100; conditions: 10 days, 0 = no effect, 100 = complete control
# Description: (§1) Seeds of plant species selected from barnyardgrass (Echinochloa crus-galli), blackgrass (Alopecurus myosuroides), corn (Zea mays), foxtail, giant (giant foxtail, Setaria faberi), green foxtail (Setaria viridis), goosegrass (Eleusine indica), kochia (Bassia scoparia), oat, wild (wild oat, Avena fatua), palmer (palmer amaranth, palmer pigweed, Amaranthus palmeri), ragweed (common ragweed, Ambrosia artemisiifolia), ryegrass, Italian (italian ryegrass, Lolium multiflorum), soybean (Glycine max) and wheat (Triticum aestivum) were planted into a blend of loam soil and sand and treated preemergence with a directed soil spray using test chemicals formulated in a non-phytotoxic solvent mixture which included a surfactant.
# (§2) At the same time, plants selected from these crops and weed species and also galium (catchweed bedstraw, Galium aparine) and horseweed (Erigeron canadensis) were planted in pots containing the same blend of loam soil and sand and treated with postemergence applications of test chemicals formulated in the same manner. Plants ranged in height from 2 to 10 cm and were in the one- to two-leaf stage for the postemergence treatment. Treated plants and untreated controls were maintained in a greenhouse for 10 days, after which time all treated plants were compared to untreated controls and visually evaluated for injury. Plant response ratings, summarized in Table A, are based on a 0 to 100 scale where 0 is no effect and 100 is complete control. A dash (-) response means no test result.
# [2] = system: ragweed (common ragweed, Ambrosia artemisiifolia); assay: as above; conditions: 10 days, 0 = no effect, 100 = complete control
# Description: as §1, §2
# corn (Zea mays) [3] = assay: as above; conditions: 10 days, 0 = no effect, 100 = complete control
# Description: as §1, §2
# [4] = system: barnyardgrass (Echinochloa crus-galli); assay: as above; conditions: 10 days, 0 = no effect, 100 = complete control
# Description: as §1, §2
# [5] = system: oat, wild (wild oat, Avena fatua); assay: as above; conditions: 10 days, 0 = no effect, 100 = complete control
# Description: as §1, §2
# [6] = system: palmer (palmer amaranth, palmer pigweed, Amaranthus palmeri); assay: as above; conditions: 10 days, 0 = no effect, 100 = complete control
# Description: as §1, §2
# [7] = system: blackgrass (Alopecurus myosuroides); assay: as above; conditions: 10 days, 0 = no effect, 100 = complete control
# Description: as §1, §2
# [8] = system: wheat (Triticum aestivum); assay: as above; conditions: 10 days, 0 = no effect, 100 = complete control
# Description: as §1, §2
# kochia (Bassia scoparia) [9] = assay: as above; conditions: 10 days, 0 = no effect, 100 = complete control
# Description: as §1, §2
# [10] = system: ryegrass, Italian (italian ryegrass, Lolium multiflorum); assay: as above; conditions: 10 days, 0 = no effect, 100 = complete control
# Description: as §1, §2
# soybean (Glycine max) [11] = assay: Test A postemergence application, visual injury rating 0-100; conditions: Postemergence
# Description: as §1, §2
# [12] = system: ragweed (common ragweed, Ambrosia artemisiifolia); assay: as above; conditions: Postemergence
# Description: as §1, §2
# corn (Zea mays) [13] = assay: as above; conditions: Postemergence
# Description: as §1, §2
# [14] = system: horseweed (Erigeron canadensis); assay: as above; conditions: Postemergence
# Description: as §1, §2
# [15] = system: barnyardgrass (Echinochloa crus-galli); assay: as above; conditions: Postemergence
# Description: as §1, §2
# [16] = system: oat, wild (wild oat, Avena fatua); assay: as above; conditions: Postemergence
# Description: as §1, §2
# [17] = system: palmer (palmer amaranth, palmer pigweed, Amaranthus palmeri); assay: as above; conditions: Postemergence
# Description: as §1, §2
# [18] = system: blackgrass (Alopecurus myosuroides); assay: as above; conditions: Postemergence
# Description: as §1, §2
# [19] = system: wheat (Triticum aestivum); assay: as above; conditions: Postemergence
# Description: as §1, §2
# [20] = system: galium (catchweed bedstraw, Galium aparine); assay: as above; conditions: Postemergence
# Description: as §1, §2
# kochia (Bassia scoparia) [21] = assay: as above; conditions: Postemergence
# Description: as §1, §2
# [22] = system: ryegrass, Italian (italian ryegrass, Lolium multiflorum); assay: as above; conditions: Postemergence
# Description: as §1, §2
# [23] = 31 g ai/ha, greenhouse 10 days, 0 no effect, 100 complete control
# [24] = 125 g ai/ha, 10 days, 0 is no effect, 100 is complete control
structure (smiles),measurement,setting,value
CCCS(=O)(=O)OC(=O)C1C=CC(NC(=O)C2(C)CN(c3cc(Cl)cc(Cl)c3)C(=O)O2)C1 (mixture of isomers) [Compound 79],Soybean plant response rating (0-100),soybean (Glycine max) [1]; 31 g ai/ha,0
same,Soybean plant response rating (0 to 100 scale),soybean (Glycine max) [1]; 125 g ai/ha,70
same,Ragweed plant response rating (0-100),[2]; 31 g ai/ha,0
same,Ragweed plant response rating (0 to 100 scale),[2]; 125 g ai/ha,20
same,Corn plant response rating (0-100),corn (Zea mays) [3]; 31 g ai/ha,0
same,Corn plant response rating (0 to 100 scale),corn (Zea mays) [3]; 125 g ai/ha,30
same,Barnyardgrass plant response rating (0-100),[4]; 31 g ai/ha,30
same,Barnyardgrass plant response rating (0 to 100 scale),[4]; 125 g ai/ha,90
same,"Oat, Wild plant response rating (0-100)",[5]; 31 g ai/ha,20
same,"Oat, Wild plant response rating (0 to 100 scale)",[5]; 125 g ai/ha,30
same,"Amaranth, Palmer plant response rating (0-100)",[6]; 31 g ai/ha,80
same,"Amaranth, Palmer plant response rating (0 to 100 scale)",[6]; 125 g ai/ha,90
same,Blackgrass plant response rating (0-100),[7]; 31 g ai/ha,10
same,Blackgrass plant response rating (0 to 100 scale),[7]; 125 g ai/ha,30
same,Wheat plant response rating (0-100),[8]; 31 g ai/ha,10
same,Wheat plant response rating (0 to 100 scale),[8]; 125 g ai/ha,80
same,Kochia plant response rating (0-100),kochia (Bassia scoparia) [9]; 31 g ai/ha,30
same,Kochia plant response rating (0 to 100 scale),kochia (Bassia scoparia) [9]; 125 g ai/ha,70
same,"Ryegrass, Italian plant response rating (0-100)",[10]; 31 g ai/ha,20
same,"Ryegrass, Italian plant response rating (0 to 100 scale)",[10]; 125 g ai/ha,80
same,Soybean plant response rating (0 to 100 scale),soybean (Glycine max) [11]; [23],40
same,Soybean plant response rating (0 to 100 scale),soybean (Glycine max) [11]; [24],90
same,Ragweed plant response rating (0 to 100 scale),[12]; [23],50
same,Ragweed plant response rating (0 to 100 scale),[12]; [24],60
same,Corn plant response rating (0 to 100 scale),corn (Zea mays) [13]; [23],90
same,Corn plant response rating (0 to 100 scale),corn (Zea mays) [13]; [24],100
same,Horseweed plant response rating (0 to 100 scale),[14]; [23],40
same,Horseweed plant response rating (0 to 100 scale),[14]; [24],70
same,Barnyardgrass plant response rating (0 to 100 scale),[15]; [23],90
same,Barnyardgrass plant response rating (0 to 100 scale),[15]; [24],90
same,"Oat, Wild plant response rating (0 to 100 scale)",[16]; [23],90
same,"Oat, Wild plant response rating (0 to 100 scale)",[16]; [24],90
same,"Amaranth, Palmer / Pigweed, Palmer plant response rating (0 to 100 scale)",[17]; [23],70
same,"Amaranth, Palmer / Pigweed, Palmer plant response rating (0 to 100 scale)",[17]; [24],90
same,Blackgrass plant response rating (0 to 100 scale),[18]; [23],60
same,Blackgrass plant response rating (0 to 100 scale),[18]; [24],90
same,Wheat plant response rating (0 to 100 scale),[19]; [23],80
same,Wheat plant response rating (0 to 100 scale),[19]; [24],90
same,Galium plant response rating (0 to 100 scale),[20]; [23],80
same,Galium plant response rating (0 to 100 scale),[20]; [24],80
same,Kochia plant response rating (0 to 100 scale),kochia (Bassia scoparia) [21]; [23],70
same,Kochia plant response rating (0 to 100 scale),kochia (Bassia scoparia) [21]; [24],80
same,"Ryegrass, Italian plant response rating (0 to 100 scale)",[22]; [23],50
same,"Ryegrass, Italian plant response rating (0 to 100 scale)",[22]; [24],60
